Measured values published in PMC2720641 (Biochemistry, 2009).
pIC50: −log10 of the molar value.

Key:
[1] = molecular target: T1, mCOX-2 (Mus musculus, UniProt Q05769); assay: IC50 for inhibition of mCOX-2 oxygenation of AA after preincubation; format: biochemical, murine; conditions: read-out: IC50 for inhibition of AA oxygenation; 2 min preincubation; 50 μM AA
T1 sequence (Q05769 18-604): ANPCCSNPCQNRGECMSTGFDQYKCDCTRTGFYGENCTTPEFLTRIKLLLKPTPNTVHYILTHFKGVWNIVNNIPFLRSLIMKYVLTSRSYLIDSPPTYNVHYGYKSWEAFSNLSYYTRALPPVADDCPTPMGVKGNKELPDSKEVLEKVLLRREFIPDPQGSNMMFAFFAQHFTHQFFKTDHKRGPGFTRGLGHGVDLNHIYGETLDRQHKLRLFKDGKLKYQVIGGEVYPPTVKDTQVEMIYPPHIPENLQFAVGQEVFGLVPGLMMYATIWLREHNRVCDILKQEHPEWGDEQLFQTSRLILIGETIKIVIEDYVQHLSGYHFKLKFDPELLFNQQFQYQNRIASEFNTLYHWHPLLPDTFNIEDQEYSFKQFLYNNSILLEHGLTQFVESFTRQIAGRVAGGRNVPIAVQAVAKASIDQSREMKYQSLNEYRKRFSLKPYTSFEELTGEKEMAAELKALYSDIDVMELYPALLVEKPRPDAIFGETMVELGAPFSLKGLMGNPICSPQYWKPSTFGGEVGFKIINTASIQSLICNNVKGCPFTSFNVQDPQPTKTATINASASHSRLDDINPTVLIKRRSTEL

[2] = molecular target: T2, murine COX-2 (mCOX-2) (Mus musculus, UniProt Q05769); assay: Instantaneous inhibition of mCOX-2 oxygenation of 2-AG; format: biochemical; conditions: substrate 2-AG
T2 sequence (Q05769 18-604): T1 sequence (Q05769 18-604)

[3] = molecular target: T2, murine COX-2 (mCOX-2); assay: Instantaneous inhibition of mCOX-2 oxygenation of AA; format: biochemical; conditions: substrate AA

Row | pIC50 [1] | Mode of inhibition of 2-AG oxygenation [2] | Oxygenation of 2-AG at 5 μM inhibitor ([2]; mefenamate 5 μM) | Mode of inhibition of AA oxygenation [3] | SMILES
1 | ~3.30 |  |  |  | COc1ccc2c(c1)c(CC(=O)O)cn2C(=O)c1ccc(Cl)cc1 [2′-des-methylindomethacin]
2 |  | noncompetitive | completely inhibited | competitive | Cc1cccc(Nc2ccccc2C(=O)O)c1C [mefenamic acid]
